In data set [1] the target is T1, Wistar rat heart PBR (Rattus norvegicus, UniProt P16257).
T1 construct: from tissue; host or cells: Wistar rat heart
Kind of data set: In vitro potency assay: competition against 0.3 nM [3H]PK-11195 binding. The procedure: Non-radioactive analogues of in vivo imaging agents of the invention were tested.
Each test compound (dissolved in 50 mM Tris-HCl, pH 7.4, 10 mM MgCl2 containing 1% DMSO) competed for binding to Wistar rat heart PBR against 0.3 nM [^3H] […] The reaction, was carried out in 50 mM Tris-HCl, pH 7.4 10 mM MgCl2 for 15 minutes at 25° C.

Data set [2] can be described thus: In vivo biodistribution method. To be noted: for Brain 2 min / OB 30 min: adult male Wistar rats, 1-3 MBq via lateral tail vein; for Brain 2 min: 2 min after injection; for OB 30 min: olfactory bulb.
Procedure: Imaging agents of the invention were tested in an in vivo biodistribution model.
Adult male Wistar rats (200-300 g) were injected with 1-3 MBq of test compound via the lateral tail vein. At 2, 10, 30 or 60 min (n=3) after injection, rats were euthanised and tissues or fluids were sampled for radioactive measurement on a gamma counter.

Where two headings read alike, the source gives them in different places.

For the molecule `CCN(CC)C(=O)C1CCCc2c1c1c(OC)cccc1n2CC[18F]` (centres unmarked) [compound 5], in data set [1] (non-radioactive analogues, vs 0.3 nM [3H]PK-11195, 50 mM Tris-HCl pH 7.4, 10 mM MgCl2, 15 minutes at 25° C., read-out: Ki), the Ki (commonly a dissociation constant, usually derived from enzyme kinetics or from competition with a known ligand) amounted to 1.47 nM.

`O=C(C1CCCc2c1c1ccccc1n2CC[18F])N1CCCCC1` (centres unmarked) [compound 6] displayed a Ki in data set [1] of 18.3 nM.

Consider `CCN(CC)C(=O)C1CCCc2c1c1cc(F)ccc1n2CC[18F]` (centres unmarked) [compound 9], for which the “Brain 2 min” value in data set [2] came out at 0.56 % ID/g. In addition, in data set [2] (30 min after injection), the “OB 30 min” value came out at 0.41 % ID/g. Besides, the inhibition constant Ki in data set [1] worked out at 3.79 nM.

For `CN(Cc1ccccc1)C(=O)C1CCCc2c1c1ccccc1n2CC[18F]` (centres unmarked) [compound 7], the “Brain 2 min” value in data set [2] worked out at 0.55 % ID/g. Moreover, the “OB 30 min” value in data set [2] (30 min after injection) amounted to 0.34 % ID/g. Moreover, the “OB:Str 30 min” value in data set [2] (ratio olfactory bulb:striatum, 30 min after injection, Wistar rats) worked out at 3.40. In data set [1], this molecule registered a Ki of 1.25 nM.

For `CCN(CC)C(=O)C1CCCc2c1c1c(F)cccc1n2CC[18F]` (centres unmarked) [compound 10], the “Brain 2 min” value in data set [2] is listed as 0.50 % ID/g. Moreover, the “OB 30 min” value in data set [2] (30 min after injection) was 0.51 % ID/g.

Values taken from patent US9168317B2, “In vivo imaging method of mood disorders” (GE Healthcare Limited, priority 2010, dated 2015).
